In one data set the target is MAO-A (Homo sapiens (Human), UniProt P21397). As to the kind of experiment: Competitive binding test against MAO-A with [18F] Fluoroethyl harmine. Conditions: for binding against MAO-A (in words): competitive binding test; for IC50: label ligand [18F] Fluoroethyl harmine. As for the experimental part:
MAO-A (M7316) was purchased from Sigma Aldrich Co. LLC (St. Louis, MO). The […] (0.5 μg) and 0.1 to 10,000 nM of [^18F] Fluoroethyl harmine (10 μCi/mL, 2 nM) […] were mixed (200 μL), and the mixture was reacted at room temperature for 1 hour. The reaction solution was transfered to MultiScreen HTS 96-well 0.65 μm filtration plate (Millipore, Billerica, MA), and a B/F separation was conducted with MultiScreen HTS Vacuum Manifold, and washed with Dulbecco's PBS and 0.1% BSA three times, and a radioactivity contained in a filter was measured with a gamma counter (AccFLEX γ7000, manufactured from ALOKA Co. Ltd.). The IC50 value was calculated similarly to the case of MAO-B.

Another data set deals with tau (Homo sapiens, UniProt P10636). As to the kind of experiment: Competitive binding against tau in Alzheimer's disease brain with [3H] MK-6240. Conditions: for IC50: Alzheimer's disease brain (Braak stage VI), label ligand [3H] MK-6240; for binding to tau (in words): competitive binding test. Here is the method:
A binding affinity against tau containined in a AD brain was conducted by using Alzheimer's disease brain (Braak stage VI) and [3H] MK-6240 (manufactured by Metck & Co) as a label ligand. The IC50 value was calculated similarly to the case of MAO-B.

Data set [1] addresses T1, MAO-B (Homo sapiens (Human), UniProt P27338). Nature of the data set: Competitive binding test against MAO-B with [3H] THK-5351. Conditions: for IC50: MAO-B membrane fractions, label ligand [3H] THK-5351; for binding to MAO-B (in words): competitive binding test. Here is the method: MAO-B (M7441) was purchased from Sigma Aldrich Co. LLC (St. Louis, MO). The MAO-B membrane fractions (0.5 μg), and 0.1 to 10,000 nM of [3H] […] The reaction solution was transferred to MultiScreen HTS 96-well […] filtration plate (Millipore, Billerica, MA), and a B/F separation was conducted with a MultiScreen HTS Vacuum Manifold, and the mixture was washed with Dulbecco's PBS, and 0.1% BSA three times, and the filter was incubated with 2 mL of Scintillation fluid (Emulssifer-Safe; Perkin Elemer, Boston, MA), and a radio activity was measured with a beta counter (LS6500 liquid scintillation counter, Beckman Counter, Brea, CA). IC50 value was calculated by using Graph Pad Prism Version 7 (GraphPad Software, San Diego, CA).

Data set [2] is described as follows: Dynamic evaluation (body distribution) in normal mouse. The class given is in vivo. Conditions: bone accumulation, male ICR mouse. As for the experimental part:
Each saline containing [^18F] HK-5470 as the compound of the present invention, (S)-[^18F] HK-5174 as the comparative compound, or [^18F] HK-5351 as the ^18F labeled-compound (740 kBq) was administered intravenously via tail to male ICR mouse (6 weeks old), and after 2 min., 10 min., 30 min., 60 min., and 120 min., cervical dislocation of mouse was performed under ether anesthesia, and each organ tissue including brain was extracted, and a weight and a radioactivity of each organ was measured with Gamma counter (AccuFLEX γ7000, measured by Hitachi-Aloka Medical, Tokyo). The accumulation of radioactivity was evaluated by making the ratio of radioactivity per weight of tissue against total administered radioactivity (% Injected Dose/g of tissue; % ID/g) an index. The evaluation was conducted in a ratio of four per group.

Data set [3] addresses T1, MAO-B. As to the kind of experiment: In vitro autoradiography of human necropsy brain sections. In kind it is binding. Here is the method: Each […] slice frozen section of a normal necropsy brain (person) and an Alzheimer's disease necropsy brain (person; neurofibrillary tangles stage was Braak stage VI) was dried at room temperature, and phosphate buffered saline (PBS) was added thereto and the wetting treatment was consucted for 30 minutes. Pre-incubation was conducted for 30 minutes by using PBS containing 1% bovine serum albumin (BSA). A PBS (370 kBq/mL) containing 1% BSA of the ^18F labeled compound were added dropwise to the section, and the reaction was conducted at room temperature for 30 minutes. In order to evaluate a specific binding to MAO-B, a similar reaction to the above reaction was conducted in the presence of MAO-B selective inhibitor (that is, Lazabemide) (10 μM). After that, the section was washed by soaking it in PBS containing 1% BSA for 5 minutes, and further in PBS for 5 minutes twice. After the section was dried at room temperature, an imaging plate (GE healthcare, BAS-MS 2025) was exposed to light, and an image (spartial resolution 25 μm×25 μm) was acquired by a FLA-9500 imaging analyzer plate (GE healthcare). The adjacent sections were subjected to an immunostaining using MAO-B (manufactured from Sigma, Aldrich, Co. LLC), AT8 tau (manufactured from Innogenetics, N.V.), or 6F/3D 6-amyloid (DAKO) antibody, and the resulting stainned distributions were compared with a distribution of a binding to tracer. Similar tests were conducted by using as comparative compound, (S)-[^18F] HK-5174 (WO 2017/103257 A1), and(S)-[^18F] THK-5351, each having the following structural formula respectively.

A value given as a limit tells only on which side of the number the result lay.

Broadly, the IC50 is the midpoint of a concentration-inhibition curve. Lower therefore signals higher potency.

T1 sequence (P27338 whole entry): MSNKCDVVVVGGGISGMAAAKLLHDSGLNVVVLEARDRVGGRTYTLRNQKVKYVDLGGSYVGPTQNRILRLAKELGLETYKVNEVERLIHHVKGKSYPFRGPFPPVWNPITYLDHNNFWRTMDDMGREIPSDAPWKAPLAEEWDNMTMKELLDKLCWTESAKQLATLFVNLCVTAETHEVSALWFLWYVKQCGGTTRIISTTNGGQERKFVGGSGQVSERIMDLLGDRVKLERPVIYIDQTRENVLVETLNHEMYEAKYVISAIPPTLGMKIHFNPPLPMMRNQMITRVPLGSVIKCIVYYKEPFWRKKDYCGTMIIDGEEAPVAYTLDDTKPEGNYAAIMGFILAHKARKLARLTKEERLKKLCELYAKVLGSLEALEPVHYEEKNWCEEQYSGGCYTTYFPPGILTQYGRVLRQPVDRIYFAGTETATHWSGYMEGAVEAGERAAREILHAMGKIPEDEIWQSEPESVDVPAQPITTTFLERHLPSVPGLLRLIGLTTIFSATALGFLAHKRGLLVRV
Chain of tau (P10636 2-758 limits assumed): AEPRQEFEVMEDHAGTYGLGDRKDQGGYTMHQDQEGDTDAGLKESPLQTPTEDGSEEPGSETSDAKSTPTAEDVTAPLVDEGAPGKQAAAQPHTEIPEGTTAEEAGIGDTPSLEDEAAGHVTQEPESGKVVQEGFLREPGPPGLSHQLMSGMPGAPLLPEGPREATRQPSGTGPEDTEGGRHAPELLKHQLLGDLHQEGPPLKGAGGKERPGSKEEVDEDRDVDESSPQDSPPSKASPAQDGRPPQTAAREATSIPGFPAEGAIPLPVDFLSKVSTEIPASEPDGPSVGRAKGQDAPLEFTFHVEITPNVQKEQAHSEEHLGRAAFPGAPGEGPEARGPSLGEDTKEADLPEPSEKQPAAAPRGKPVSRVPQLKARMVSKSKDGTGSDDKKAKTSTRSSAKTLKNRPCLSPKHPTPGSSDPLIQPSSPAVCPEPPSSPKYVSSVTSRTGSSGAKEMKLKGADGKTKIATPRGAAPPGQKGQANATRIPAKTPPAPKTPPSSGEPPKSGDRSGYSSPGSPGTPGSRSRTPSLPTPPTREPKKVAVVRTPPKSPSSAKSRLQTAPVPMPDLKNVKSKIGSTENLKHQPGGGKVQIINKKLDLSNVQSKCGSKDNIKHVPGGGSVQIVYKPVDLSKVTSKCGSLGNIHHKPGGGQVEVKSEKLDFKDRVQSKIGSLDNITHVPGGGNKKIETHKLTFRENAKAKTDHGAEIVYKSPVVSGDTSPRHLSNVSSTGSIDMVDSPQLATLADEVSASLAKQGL
Chain of MAO-A (P21397 whole entry): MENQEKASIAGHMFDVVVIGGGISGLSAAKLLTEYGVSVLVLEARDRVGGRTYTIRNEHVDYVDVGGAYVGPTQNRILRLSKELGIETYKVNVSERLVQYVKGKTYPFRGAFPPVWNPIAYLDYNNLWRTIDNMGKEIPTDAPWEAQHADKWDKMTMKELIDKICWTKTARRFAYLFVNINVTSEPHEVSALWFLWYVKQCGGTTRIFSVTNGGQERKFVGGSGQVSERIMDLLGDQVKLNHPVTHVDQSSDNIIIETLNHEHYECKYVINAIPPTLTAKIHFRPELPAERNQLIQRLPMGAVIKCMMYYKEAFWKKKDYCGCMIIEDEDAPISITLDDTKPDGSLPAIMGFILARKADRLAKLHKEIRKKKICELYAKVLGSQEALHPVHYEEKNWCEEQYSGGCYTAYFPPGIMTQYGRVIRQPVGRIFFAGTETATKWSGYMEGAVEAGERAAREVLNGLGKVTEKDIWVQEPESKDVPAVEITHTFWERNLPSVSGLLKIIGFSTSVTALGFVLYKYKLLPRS

Consider `Cc1ncccc1-c1ccc2cc(OC[C@H](O)CF)ccc2n1` [THK-5472], for which the “binding against MAO-A (in words)” value at MAO-A is “low binding”. Also, the figures for the IC50 on MAO-A, on tau and at MAO-B [1] were > 10000 nM, > 10000 nM and 550 nM, respectively. Further, on tau, the “binding to tau (in words)” value is reported as “low binding”.

Turning to `Cc1ccncc1-c1ccc2cc(OC[C@H](O)CF)ccc2n1` [THK-5473], on MAO-A, the “binding against MAO-A (in words)” value is reported as “low binding” and the IC50 was > 10000 nM. For the same compound, at tau, the IC50 is > 10000 nM and the “binding to tau (in words)” value is recorded as “low binding”. The same compound showed an IC50 on MAO-B [1] of 294 nM.

`CNc1ccc(-c2ccc3cc(OC[C@H](O)C[18F])ccc3n2)cn1` [[^18F] THK-5351]: the defluorination to bone entry in data set [2] is given as “could not be confirmed”. In addition, the “accumulation in Alzheimer's disease (AD) frontal lobe sections” value at MAO-B [3] (18F labeled compound 370 kBq/mL, autoradiography) is “high accumulation”. The “binding in the presence of MAO-B selective inhibitor Lazabemide” value at MAO-B [3] (Lazabemide 10 μM, AD frontal lobe section) was “decrease in the binding”. Moreover, the “specificity of binding (autoradiography conclusion)” value on MAO-B [3] (human brain sections, compared with MAO-B and tau immunostaining) is “binds to both MAO-B and tau”.

Consider `Cc1cc(-c2ccc3cc(OC[C@H](O)CF)ccc3n2)ccn1` [THK-5471], for which, on MAO-A, the “binding against MAO-A (in words)” value is “low binding” and the IC50 was determined as 1740 nM. Besides, on tau, the IC50 came to 192 nM and the “binding to tau (in words)” value is given as “low binding”. Besides, on MAO-B [1], the IC50 was determined as 12.9 nM and the “binding to MAO-B (in words)” value is recorded as “significantly high binding”.

For the compound `Cc1cncc(-c2ccc3cc(OC[C@H](O)CF)ccc3n2)c1` [THK-5474], at MAO-A, the “binding against MAO-A (in words)” value is given as “low binding” and the concentration for half-maximal inhibition (IC50) is > 10000 nM. At tau, the IC50 turned out to be 9630 nM and the “binding to tau (in words)” value is listed as “low binding”. Further, on MAO-B [1], the IC50 came out at 12.2 nM and the “binding to MAO-B (in words)” value is “significantly high binding”.

Turning to `CNc1ccc(-c2ccc3cc(OC[C@H](O)CF)ccc3n2)cn1` [THK-5351, reference compound], the IC50 at MAO-A was > 10000 nM. At tau, the IC50 amounted to 150 nM and the “binding to tau (in words)” value is listed as “mild binding”. Further, at MAO-B [1], the IC50 was 5 nM and the “binding to MAO-B (in words)” value is “high binding”.

As to `Cc1ccc(-c2ccc3cc(OC[C@H](O)CF)ccc3n2)cn1` [THK-5470], the IC50 on MAO-A stood at 713 nM; at tau, 4460 nM.

These data come from US12522579B2, “Monoamine oxidase B imaging probe” (TOHOKU UNIVERSITY, priority 2018, dated 2026).
